What all share (conditions): 25 °C
Assay [1] concerns the target Isocitrate dehydrogenase [NADP], mitochondrial [R140Q] (Homo sapiens, UniProt P48735, R140Q). The assay is described as follows: RapidFire-MS/MS and NADPH Assays. On the procedure:
(§1) Reactions were conducted in duplicate and quenched with final concentrations of 100 mM EDTA. After each addition plates were centrifuged for 60 s to ensure complete mixing of reagents. […] For the RapidFire-MS/MS analysis, a 0.5 μL aliquot of each well was diluted 200-fold into a separate analysis plate containing 100 μL of a f

In assay [2] the target is Isocitrate dehydrogenase [NADP] cytoplasmic [R132H] (Homo sapiens, UniProt O75874, R132H). Description: RapidFire-MS/MS and NADPH Assays. The procedure: as §1
Isocitrate dehydrogenase [NADP] cytoplasmic [R132H], sequence (O75874 2-414 R132H limits assumed): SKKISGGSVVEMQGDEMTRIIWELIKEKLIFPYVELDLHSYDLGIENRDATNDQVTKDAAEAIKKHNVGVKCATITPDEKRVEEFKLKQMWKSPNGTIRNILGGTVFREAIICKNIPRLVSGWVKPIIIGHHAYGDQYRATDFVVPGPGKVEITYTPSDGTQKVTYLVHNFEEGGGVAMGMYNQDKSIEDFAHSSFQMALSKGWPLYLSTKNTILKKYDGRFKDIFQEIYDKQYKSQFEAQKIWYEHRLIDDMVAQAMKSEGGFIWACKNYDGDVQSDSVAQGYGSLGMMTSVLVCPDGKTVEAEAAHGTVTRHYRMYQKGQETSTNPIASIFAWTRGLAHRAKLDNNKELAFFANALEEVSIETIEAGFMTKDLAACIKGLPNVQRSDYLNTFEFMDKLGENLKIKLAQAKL
In assay [3] the target is Isocitrate dehydrogenase [NADP] cytoplasmic [R132C] (Homo sapiens, UniProt O75874, R132C). The assay is described as follows: RapidFire-MS/MS and NADPH Assays. On the procedure:
as §1

The target of assay [4] is Isocitrate dehydrogenase [NADP], mitochondrial [R172S] (Homo sapiens, UniProt P48735, R172S). Description: RapidFire-MS/MS and NADPH Assays. On the procedure:
as §1

The target in assay [5] is Isocitrate dehydrogenase [NADP] cytoplasmic [R132G] (Homo sapiens, UniProt O75874, R132G). Description: RapidFire-MS/MS and NADPH Assays. The procedure:
as §1

Assay [6] addresses T1, Isocitrate dehydrogenase [NADP], mitochondrial (Homo sapiens, UniProt P48735).
T1 sequence (P48735 whole entry): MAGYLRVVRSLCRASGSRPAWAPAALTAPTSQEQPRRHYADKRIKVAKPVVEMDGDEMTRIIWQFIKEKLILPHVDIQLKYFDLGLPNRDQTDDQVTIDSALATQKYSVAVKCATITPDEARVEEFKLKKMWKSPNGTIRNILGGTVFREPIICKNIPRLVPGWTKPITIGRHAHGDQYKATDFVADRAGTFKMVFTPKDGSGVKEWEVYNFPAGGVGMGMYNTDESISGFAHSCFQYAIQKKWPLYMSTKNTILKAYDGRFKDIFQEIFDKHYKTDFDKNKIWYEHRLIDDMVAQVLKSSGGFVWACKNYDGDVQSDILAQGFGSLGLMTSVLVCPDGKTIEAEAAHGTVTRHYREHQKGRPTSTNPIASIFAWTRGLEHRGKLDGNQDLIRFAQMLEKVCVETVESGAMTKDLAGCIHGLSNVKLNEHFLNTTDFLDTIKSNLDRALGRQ
Description: Diaphorase/Resazurin Coupled Assay. On the procedure:
(§2) For WT IDH1 and IDH2, reactions were conducted at room temperature in 384-well Greiner black microtiter plates in a total volume of 10 μL of assay buffer. […] Reactions were conducted in duplicate and run kinetically. After each addition, plates were centrifuged for 60 s to ensure complete mixing of reagents.
Background: The colour change of resazurin is a common sign of viable cells or microbes.

Assay [7] concerns the target Isocitrate dehydrogenase [NADP] cytoplasmic (Homo sapiens, UniProt O75874). The assay is described as follows: Diaphorase/Resazurin Coupled Assay. The procedure:
as §2

Isocitrate dehydrogenase [NADP], mitochondrial [R140Q], sequence (P48735 40-452 R140Q limits assumed): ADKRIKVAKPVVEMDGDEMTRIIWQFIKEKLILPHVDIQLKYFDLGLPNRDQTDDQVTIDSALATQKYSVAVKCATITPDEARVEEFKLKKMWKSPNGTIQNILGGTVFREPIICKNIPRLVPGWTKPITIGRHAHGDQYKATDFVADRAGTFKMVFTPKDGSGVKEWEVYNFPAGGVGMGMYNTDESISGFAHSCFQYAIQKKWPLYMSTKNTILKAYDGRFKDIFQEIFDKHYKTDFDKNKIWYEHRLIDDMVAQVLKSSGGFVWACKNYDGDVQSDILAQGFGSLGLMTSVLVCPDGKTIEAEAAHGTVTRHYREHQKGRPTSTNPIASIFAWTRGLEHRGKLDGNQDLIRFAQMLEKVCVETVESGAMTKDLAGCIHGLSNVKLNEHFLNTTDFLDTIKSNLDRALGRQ
Isocitrate dehydrogenase [NADP], mitochondrial [R172S], sequence (P48735 40-452 R172S limits assumed): as the sequence (P48735 40-452 R140Q limits assumed) above, with Q101R, R133S counted along it
Isocitrate dehydrogenase [NADP] cytoplasmic, sequence (O75874 whole entry): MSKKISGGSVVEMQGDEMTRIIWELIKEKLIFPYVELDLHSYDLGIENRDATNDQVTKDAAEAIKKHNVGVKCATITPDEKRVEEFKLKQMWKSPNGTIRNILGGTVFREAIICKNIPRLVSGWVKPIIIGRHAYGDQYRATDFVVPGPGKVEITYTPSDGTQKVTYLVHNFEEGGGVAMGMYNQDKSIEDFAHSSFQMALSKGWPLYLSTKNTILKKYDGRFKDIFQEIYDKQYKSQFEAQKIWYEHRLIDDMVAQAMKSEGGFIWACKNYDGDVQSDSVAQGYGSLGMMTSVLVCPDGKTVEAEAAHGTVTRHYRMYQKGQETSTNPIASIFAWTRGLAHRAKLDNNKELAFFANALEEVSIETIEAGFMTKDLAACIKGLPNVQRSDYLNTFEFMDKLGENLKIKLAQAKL
Isocitrate dehydrogenase [NADP] cytoplasmic [R132G], sequence (O75874 2-414 R132G limits assumed): as the sequence (O75874 2-414 R132H limits assumed) above, with H131G counted along it
Isocitrate dehydrogenase [NADP] cytoplasmic [R132C], sequence (O75874 2-414 R132C limits assumed): as the sequence (O75874 2-414 R132H limits assumed) above, with H131C counted along it

`Cc1cccc(NC(=O)c2nn(Cc3c[nH]cn3)c3c2CN(C(=O)c2ccc[nH]2)CC3)c1` [GSK990]: the IC50 (usually the point on the concentration scale where inhibition reaches its midpoint) was greater than 100 µM in assay [1]; 10.9 µM in assay [2]; 4.49 µM in assay [3]; greater than 100 µM in assay [4]; 23.3 µM in assay [5]; greater than 100 µM in assay [6]. The same compound yielded an IC50 in assay [7] greater than 100 µM.
For the compound `C[C@H](O)c1cccc(NC(=O)c2nn(Cc3ccc(F)cc3)c3c2CN(C(=O)c2ccc[nH]2)C[C@H]3C)c1` [GSK321], the IC50 is 1.36 µM in assay [1], 1.03 µM in assay [4] and 0.496 µM in assay [6].
